# Data: US20180289809A1, “FORMULATIONS OF HYDROPHILIC COMPOUNDS” (BCS Business Consulting Services Pte Ltd., priority 2015, published 2018)
# Assay: Formation of clear nanoemulsion formulation with substituted hydrophobic phase ingredient
# Assay type: physicochemical
# Settings: used as hydrophobic phase ingredient substituted into the examples; failures generally began cloudy and separated into two phases, primarily within 24 hours
row,SMILES,forms successful nanoemulsion / clear formulation
1,CC(C)=CCC/C(C)=C/CC/C(C)=C/CC/C=C(\C)CC/C=C(\C)CCC=C(C)C [Squalene],did form clear formulations
2,CCCCCCCCCCCCCCCCOC(=O)CCCCCCC [cetyl octanoate],did not form successful nanoemulsion formulations
3,C[Si]1(C)O[Si](C)(C)O[Si](C)(C)O[Si](C)(C)O[Si](C)(C)O1 [cycopentasiloxane],did not form successful nanoemulsion formulations
4,CCCCC(CC)COC(=O)c1ccccc1 (stereo not shown) [ethylhexyl benzoate],did not form successful nanoemulsion formulations
5,CCCCCCCCCCCCCCCC(=O)OC(C)C [isopropyl palmitate],did not form successful nanoemulsion formulations
6,CCCCCCCCCCCCCCCCCC(=O)OCCCCCCCC [octyl stearate],did not form successful nanoemulsion formulations
7,CCCCC/C=C\C/C=C\CCCCCCCC(=O)Oc1c(C)c(C)c2c(c1C)CC[C@@](C)(CCC[C@H](C)CCC[C@H](C)CCCC(C)C)O2 [tocopheryl linoleate],did not form successful nanoemulsion formulations
